# Data from patent US20100143960A1, “CYANINE DERIVATIVES, FLUORESCENT CONJUGATES CONTAINING SAME AND USE THEREOF” (CIS BIO INTERNATIONAL, priority 2007, published 2010).
# Tests used:
# [1] = Comparison of quantum yields / fluorescence spectrum of cyanine derivatives carrying phosphonate groups; format: physicochemical
# Procedure: Fluorescence spectrum: Measurement on a Perkin-Elmer LS50 device, the samples were diluted in phosphate buffer 0.1M pH 7 containing 0.1% BSA (maximum absorbance=0.04 at the excitation wavelength). Excitation: 600 nm (10 nm). Emission (max)=670.5 nm (quantum yield=13%).
# The phosphate/phosphonate ester functional groups of the cyanine derivatives according to the invention are hydrolyzed in the cell by cell enzymes to give phosphate/phosphonate functional groups. The quantum yields of the cyanine derivatives carrying phosphonate groups, thus corresponding to the compounds according to the invention as present in the cell after hydrolysis of the ester functional groups, were measured in order to determine if the position of the phosphate/phosphonate ester groups influences the photophysical properties of the compounds.
# [2] = tested on: fusion protein GST-ST26-Flag in CHO-K1 cells; assay: Labeling of an intracellular protein in intact living cells, detected by HTRF measurement; format: cell-based; conditions: 5 μM substrate, 3 h at 20° C.
# From the text: This example is targeted at showing that the compounds according to the invention comprising a phosphonate ester and conjugated to a substrate (benzylguanine, BG) for a “snaptag” suicide enzyme (ST26) are capable of passing through the cell membrane and of labeling a fusion protein expressed by the cell and comprising the snaptag enzyme ([…]), in contrast to the use of a cyanine not comprising phosphonate esters (DY-647).
# The HTRF technique is used to test the intracellular labeling of a protein by the cyanine derivatives according to the invention, on living cells, using the recombinant protein GST-ST26-Flag produced by the cells and labeled indirectly via an anti-GST antibody conjugated with a europium trisbipyridine cryptate (anti-GST-EuTBP).
# After culturing, CHO-K1 cells are transfected in the presence of lipofectamine 2000 (0.8 μl per 50 μl of transfection solution, Lipofectamine™ Transfection Reagent, Invitrogen Inc., Carlsbad, Calif.) at the rate of 50 000 cells per well in a black 96-well microplate. The transfected cells are subsequently incubated for 24 h at 37° C., 5% CO2. […]
# The fluorescence at 665 nm is measured on an HTRF reader (RUBYstar, BMG Labtechnologies). […]
# [3] = tested on: stable CHO line expressing SnapTag in the nucleus; assay: Test of cell permeability of benzylguanine conjugates (fluorescence microscopy); format: cell-based; conditions: 5 μM in culture medium, one hour contact, washing, additional hour, microscopic analysis, FIG. 1
# Procedure: The cells used result from a stable CHO line expressing SnapTag in the nucleus by virtue of the NLS sequence. The compounds are added to the culture medium (DMEM medium supplemented with 10% of inactivated SVF, 30 min at 60° C.) at a concentration of 5 μM and left in contact with the cells for one hour. After the incubation, three washing operations are carried out with culture medium. An additional hour of incubation solely in the medium is carried out in order to make possible the labeling of the SnapTag by the substrate. Staining of the […] is subsequently carried out with DAPI before the microscopic analysis.
# The above images are represented in FIG. 1.
# [4] = aqueous medium, nonsulfonated; cited from earlier work
# [5] = in solution; cited from earlier work
# [6] = phosphate buffer 0.1M pH 7 containing 0.1% BSA, excitation 600 nm
compound,measurement,setting,value
"2-{(1E,3E,5E)-5-[3-(5-Carboxypentyl)-3-methyl-4-ethyl-5-phosphono-1,3-dihydro-2H-indol-2-ylidene]penta-1,3-dienyl}-5-phosphono-3,3-dimethyl-1-(4-ethyl)-3H-indolium [compound 19]",Emission (max),[1]; [6],670.5 nm
same,quantum yield,[1]; [6],13%
same,Wavelength of max. absorption,[1]; phosphonate (hydrolyzed) form,649 nm
same,Wavelength of max. emission,[1]; phosphonate (hydrolyzed) form,670 nm
same,quantum yield,[1]; phosphonate (hydrolyzed) form,13%
CCN1/C(=C/C=C/C=C/C2=[N+](CC)c3ccc(S(=O)(=O)[O-])cc3C2(C)C)C(C)(CCCC(=O)NCc2ccc(COc3nc(N)nc4[nH]cnc34)cc2)c2cc(S(=O)(=O)O)ccc21 (stereo not shown) [BG-DY647],percentage of intracellular labeling (signal at 665 nm passive labeling / total labeling),"[2]; CHO-K1, HTRF with anti-GST-EuTBP, FIG. 2",penetrates poorly into cells
same,passes through the cell membrane and labels an intracellular protein,[2]; intact CHO-K1 cells,not the case
same,passage through the plasma membrane of the cells (intracellular fluorescence),[3],have not passed through the plasma membrane
CN1C(=CC=C2CCCC(C=CC3=[N+](C)c4ccccc4C3(C)C)=C2Cl)C(C)(C)c2ccccc21.[O-][Cl+3]([O-])([O-])[O-] [IR-786],solubility,[4],less than 10 μM
CC1(C)C(/C=C/C=C/C=C/C=C2\N(CCCCS(=O)(=O)O)c3ccc4ccccc4c3C2(C)C)=[N+](CCCCS(=O)(=O)[O-])c2ccc3ccccc3c21 [indocyanine green],concentration above which quantum yield falls due to formation of aggregates,[5],greater than 125 μM
